Calls of active or inactive are those of the source.
Columns and labels:
[1] = inhibitors of control Renilla luciferase reporter, dose response, counter-screen for Shn3 3'UTR targeting project, Clone20-Shn3RL cells, dual-Glo, cherry-pick, set 2 (AID 720724); type: functional, cell-based; details: Dual-Go Shn3RL
BJ [2] = assay: cells; type: functional, cell-based; details: Homo sapiens
[3] = Luminescence Cell-Based Dose Response HTS to Identify Activators of Luciferase Translation or Activity in H4 […] Cells. [Related pubchem assays: 1829 (Project Summary), 1814 (Primary HTS)]; type: functional
[4] = Shn3 3'UTR reporter inhibitors, dose response, cell-based, Clone20 osteoblasts, firefly luciferase, cherry-picked (AID 624132); type: functional;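 also: firefly luciferase luminescence from reporter carrying the Shn3 3'UTR in osteoblasts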
[5] = cytotoxicity toward DRD oncogenic fibroblasts, dose response, cell-based, non-viral oncogenic, luminescence (AID 1934); type: functional; details: Homo sapiens
[6] = HepG2 cell cytotoxicity, dose response, cytotoxicity control for Shn3 inhibitor project, CellTiter-Glo, cherry-picked (AID 624134); type: functional, cell-based
[7] = Fluorescence-based cell-based high throughput dose response assay for inhibitors of the interaction of nucleotide-binding oligomerization domain containing 2 (NOD2) and the receptor-interacting serine-threonine kinase 2 (RIPK2).; type: functional; details: Homo sapiens
[8] = reduction of Shn3 3'UTR firefly luciferase signal, dose response, Schnurri-3 inhibitor project, cell-based, Clone20 osteoblasts, cherry-pick, set 2 (AID 720490); type: functional;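 also: actives lower the luminescence signal as inhibitors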
BJ [9] = assay: cytotoxicity toward Ras-transformed BJeLR fibroblasts, dose response, cell-based, alamar blue fluorescence, cherrypicked samples (AID 2631); type: functional; details: Homo sapiens;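 also: confirmatory dose-response assay in RAS-dependent BJ fibroblasts engineered with TERT, LT and ST, with cytotoxicity read by fluorescence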
[10] = reduction of endogenous Shn3 mRNA, dose response, qPCR, Clone20 cells, cherry-pick (AID 743415); type: functional, cell-based
[11] = cytotoxicity in HEK-293T cells, dose response, cytotoxicity control for TCR NF-kB inhibitor project, luminescence, T-cell screen hits (AID 489026); type: functional, cell-based;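 also: cells exposed to compound about 14 hours before the viability readout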
BJ [12] = assay: cytotoxicity toward BJ-TERT fibroblasts, dose response, cell-based, RAS-independent, luminescence (AID 1933); type: functional; details: Homo sapiens
H4 = assay: Luminescence Cell-Based Dose Response HTS to Identify Activators of 5'UTR Stem-Loop Driven Prion Protein mRNA Translation in H4 Neuroglioblastoma Cells. [Related pubchem assays: 1829 (Project Summary), 1814 (Primary HTS)]; type: functional; details: Homo sapiens
[13] = Luminescence Cell-Based Dose Confirmation HTS to Identify Activators of 5'UTR Stem-Loop Driven Alpha-Synuclein mRNA Translation in H4 Neuroglioblastoma Cells. [Related pubchem assays: 1829 (Project Summary), 1814 (Primary HTS)]; type: functional
[14] = molecular target: T1, Replicative DNA helicase DnaB (Mycobacterium tuberculosis, UniProt P9WMR3); assay: DnaB intein splicing inhibitors, dose response, biochemical, cell-free fluorescence (AID 449749); type: functional
T1 sequence (P9WMR3 whole entry): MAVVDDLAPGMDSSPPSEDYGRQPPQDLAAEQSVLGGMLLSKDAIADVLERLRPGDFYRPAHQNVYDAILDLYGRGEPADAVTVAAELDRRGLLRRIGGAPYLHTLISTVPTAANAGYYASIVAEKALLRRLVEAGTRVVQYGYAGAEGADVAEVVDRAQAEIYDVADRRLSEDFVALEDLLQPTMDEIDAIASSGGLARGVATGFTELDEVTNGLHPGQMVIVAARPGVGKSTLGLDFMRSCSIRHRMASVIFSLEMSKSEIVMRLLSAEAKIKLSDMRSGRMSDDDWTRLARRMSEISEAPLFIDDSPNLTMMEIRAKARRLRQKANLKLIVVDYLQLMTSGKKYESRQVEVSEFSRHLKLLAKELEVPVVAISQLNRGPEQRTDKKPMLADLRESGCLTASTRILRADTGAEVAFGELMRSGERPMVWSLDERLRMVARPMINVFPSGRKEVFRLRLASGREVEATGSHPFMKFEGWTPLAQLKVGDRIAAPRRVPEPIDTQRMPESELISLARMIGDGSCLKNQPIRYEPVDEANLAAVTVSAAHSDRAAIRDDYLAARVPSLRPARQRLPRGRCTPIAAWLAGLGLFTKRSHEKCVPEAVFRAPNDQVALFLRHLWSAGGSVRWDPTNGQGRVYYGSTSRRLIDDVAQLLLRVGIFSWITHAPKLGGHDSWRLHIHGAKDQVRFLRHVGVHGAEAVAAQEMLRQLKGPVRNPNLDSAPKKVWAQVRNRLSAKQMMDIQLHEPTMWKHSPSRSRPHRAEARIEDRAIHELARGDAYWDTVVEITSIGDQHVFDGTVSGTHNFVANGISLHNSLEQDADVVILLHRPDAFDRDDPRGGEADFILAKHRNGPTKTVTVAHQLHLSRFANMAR

BJ [15] = assay: cytotoxicity toward BJ-TERT-LT-ST fibroblasts, dose response, cell-based, RAS-independent, luminescence (AID 1935); type: functional; details: Homo sapiens;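 also: BJ fibroblasts immortalized with TERT plus LT and ST oncogenes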
Beta Lactamase [16] = molecular target: T2, Beta Lactamase (Pseudomonas aeruginosa, UniProt Q932Y6); assay: beta-lactamase reporter inhibitor potency, dose response, artefact control for NOD2-RIPK2 interaction inhibitor project, BLA reporter cells, FRET fluorescence (AID 651552); type: functional, cell-based
T2 sequence (Q932Y6 whole entry, the tested form may be a part): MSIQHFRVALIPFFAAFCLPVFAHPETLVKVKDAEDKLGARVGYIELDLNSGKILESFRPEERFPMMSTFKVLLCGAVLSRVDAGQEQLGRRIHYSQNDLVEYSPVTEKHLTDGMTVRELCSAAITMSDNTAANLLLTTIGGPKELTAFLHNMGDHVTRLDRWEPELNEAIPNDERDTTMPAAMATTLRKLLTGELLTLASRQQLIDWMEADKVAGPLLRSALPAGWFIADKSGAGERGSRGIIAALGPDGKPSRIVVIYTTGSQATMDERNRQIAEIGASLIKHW

CHO = assay: cytotoxicity in TLR9-MyD88 CHO cells, dose response, cytotoxicity control for TLR9-MyD88 binding inhibitor project, cell-based, luminescence (AID 588339); type: functional, hamster; details: Cricetulus griseus;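 also: CHO cells stably coexpressing TLR9 and MyD88 fusions from primary screen; compound exposure lasted 48 hours before viability readout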
Protein RecA = molecular target: T3, Protein RecA (Mycobacterium tuberculosis, UniProt P9WHJ3); assay: Fluorescence Cell-Free Homogeneous Dose Retest to Identify Inhibitors of RecA-Intein Splicing Activity. [Related pubchem assays (depositor defined):AID2097, AID2223, AID489010, AID492950]; type: functional
T3 sequence (P9WHJ3 whole entry): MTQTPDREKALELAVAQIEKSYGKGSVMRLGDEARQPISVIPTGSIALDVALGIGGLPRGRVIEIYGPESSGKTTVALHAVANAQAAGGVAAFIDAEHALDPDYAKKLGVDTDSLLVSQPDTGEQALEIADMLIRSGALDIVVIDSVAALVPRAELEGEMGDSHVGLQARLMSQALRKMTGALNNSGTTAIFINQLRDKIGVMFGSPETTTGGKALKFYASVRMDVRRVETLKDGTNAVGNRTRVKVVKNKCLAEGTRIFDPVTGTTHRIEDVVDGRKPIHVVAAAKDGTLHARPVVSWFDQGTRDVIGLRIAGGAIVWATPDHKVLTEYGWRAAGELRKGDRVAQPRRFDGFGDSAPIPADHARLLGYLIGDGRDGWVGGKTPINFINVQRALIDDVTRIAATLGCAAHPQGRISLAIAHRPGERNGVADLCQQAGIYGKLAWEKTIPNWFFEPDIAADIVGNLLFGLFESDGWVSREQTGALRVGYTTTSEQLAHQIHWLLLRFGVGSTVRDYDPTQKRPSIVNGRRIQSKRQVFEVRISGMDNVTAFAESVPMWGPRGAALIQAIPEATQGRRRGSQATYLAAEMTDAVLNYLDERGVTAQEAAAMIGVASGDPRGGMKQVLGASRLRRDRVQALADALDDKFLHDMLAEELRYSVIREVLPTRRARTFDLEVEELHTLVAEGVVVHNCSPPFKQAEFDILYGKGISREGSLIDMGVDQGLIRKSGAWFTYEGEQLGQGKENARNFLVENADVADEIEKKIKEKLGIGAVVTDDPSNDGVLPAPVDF

[17] = control 3'UTR Renilla luciferase suppression, dose response, counter-screen for Shn3 inhibitor project, cell-based, Clone20-Shn3RL, cherry-picked (AID 624133); type: functional
Beta Lactamase [18] = molecular target: T2, Beta Lactamase; assay: beta-lactamase reporter inhibitor potency, dose response, artefact control for TLR9-MyD88 binding inhibitor project, BLA reporter cells, FRET fluorescence (AID 588341); type: cell-based;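 also: cell based assay in CHO-K1 cells stably expressing beta-lactamase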
[19] = viability loss in Mcl1-dependent HMC-1-8 cells, dose response, selectivity assay for A1 inhibitor project, cell-based, luminescence, dry powder (AID 504415); type: functional; details: Homo sapiens
[20] = HepG2 cell cytotoxicity, dose response, cytotoxicity control, ATP luminescence, cherry-pick, activator set 2 (AID 1053143); type: functional, cell-based
[21] = Luminescence Cell-Based Dose Retest to Confirm Inhibitors of Cancer Stem Cells. [Related pubchem assays (depositor defined):AID2717, AID2721]; type: functional; details: Homo sapiens
[22] = molecular target: Neurotensin receptor type 1 (Homo sapiens, UniProt P30989); type: functional;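 also: Image-based confirmatory dose-response assay measuring agonist activity at NTR1; NTR1-expressing U2OS osteosarcoma cells imaged for beta-arrestin GFP spot formation; agonist potency where compounds increase beta-arrestin recruitment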
Chain of Neurotensin receptor type 1 (P30989 whole entry): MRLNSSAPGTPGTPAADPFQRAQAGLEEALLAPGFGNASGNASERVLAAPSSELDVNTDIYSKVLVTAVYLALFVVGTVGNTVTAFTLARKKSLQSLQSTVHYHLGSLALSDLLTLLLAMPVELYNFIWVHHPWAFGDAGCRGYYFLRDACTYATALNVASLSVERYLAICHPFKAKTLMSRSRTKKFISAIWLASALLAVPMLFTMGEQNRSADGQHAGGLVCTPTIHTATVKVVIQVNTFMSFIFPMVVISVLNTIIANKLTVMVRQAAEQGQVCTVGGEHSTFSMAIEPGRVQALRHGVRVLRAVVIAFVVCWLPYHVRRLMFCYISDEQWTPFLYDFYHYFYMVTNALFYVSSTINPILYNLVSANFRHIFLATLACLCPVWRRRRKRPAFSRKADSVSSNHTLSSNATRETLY

With `CCOC(=O)C1CCN(S(=O)(=O)c2c(Cl)ccc3nonc23)CC1` the AC50 [1] was 1.77 µM (active), the EC50 (BJ [2]) was 6.08 µM (inconclusive) and the EC50 [3] was > 120 µM (not active). The AC50 [4] was 0.919 µM (active), the EC50 [5] was 2.75 µM (active) and the AC50 [6] was 12.2 µM (active). For the same compound, the IC50 [7] was 1.12 µM (active), the AC50 [8] was 1.97 µM (active) and the EC50 (BJ [9]) was 0.318 µM (active). The AC50 [10] was 3.36 µM (active), the IC50 [11] was > 80 µM (inactive) and the EC50 (BJ [12]) was 2.73 µM (inconclusive). The EC50 (H4) was > 120 µM (not active), the EC50 [13] was > 120 µM (not active) and the AC50 [14] was 5.07 µM (active). The EC50 (BJ [15]) was 2.84 µM (inconclusive), the IC50 (Beta Lactamase [16]) was 26.8 µM (inactive) and the IC50 (CHO) was 2.42 µM (active). The EC50 (Protein RecA) was 14.4 µM (active), the AC50 [17] was 4.78 µM (active) and the IC50 (Beta Lactamase [18]) was 21.2 µM (inactive).
In the case of `Cc1ccc(Sc2c([N+](=O)[O-])c(=O)n(C)c3ccccc23)cc1`, the AC50 [19] is reported as 19.3 µM (active), the AC50 [20] is reported as 26 µM (active) and the AC50 [21] is reported as 3.18 µM (active). For the same compound, the EC50 [22] was 26 µM (inactive).
